Values joined by “and” are separate entries in the source; they are usually repeats but may differ in a detail not shown here. Equal entries are not always repeated. Where two headings read alike, the source gives them in different places. One block for each compound: values may come before it.
Experiments:
[1] = the molecule shown is the open-chain precursor; crosslinker bond; 11-membered ring; 2,3-bis(chloromethyl)pyrazine/Cs2CO3/NaI; MeCN; 9.09 mM; 70.0 °C
[2] = 11-membered ring
[3] = the molecule shown is the open-chain precursor; crosslinker bond; 11-membered ring; 2,3-bis(chloromethyl)pyridine HCl/Cs2CO3/NaI; MeCN; 73.1 mM; 75.0 °C
SUDHL5 [4] = experiment: Induction of caspase-3/7 activity in SUDHL5 cells (Assay 4); assay type: cell-based; conditions: SUDHL5, 3 hours treatment, Caspase-Glo 3/7, median, read-out: Caspase SUDHL5 [M] (median)
How it was run: (§1)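 DLBCL lines SUDHL5 and SUDHL10 were treated with compound for 3 h at 37 °C. Caspase-3/7 activity was then read by Caspase-Glo 3/7 luminescence after 1 h at 37 °C. Medium-only background was subtracted and values were normalized to the mean of DMSO-treated cells.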

SUDHL10 [5] = experiment: Induction of caspase-3/7 activity in SUDHL10 cells (Assay 4); assay type: cell-based; conditions: SUDHL10, 3 hours treatment, Caspase-Glo 3/7, median, read-out: Caspase SUDHL10 [M] (median)
How it was run: as §1

MCL-1 = MCL-1 (Homo sapiens, UniProt Q07820, K194A/K197A/R201A); experiment: Protein-protein interaction assay MCL-1/Noxa BH3 peptide, TR-FRET (MCL-1 assay, Assay 1); assay type: binding; conditions: MCL-1 Assay [M] (median), MBP-MCL-1 / Noxa BH3 peptide
How it was run: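 Human MBP-fused MCL-1 (aa 173-321; 1 nM final) was pre-incubated 10 min at 22 °C with compound in pH 7 Tris buffer containing NaCl, KF, Tween-20, DTT and BGG. Displacement of biotinylated Noxa BH3 peptide was read by TR-FRET (anti-MBP-Eu cryptate/streptavidin-XL665) after 1 h at 22 °C plus overnight at 4 °C. IC50 came from four-parameter fits against DMSO controls.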

SUDHL10 [6] = experiment: Induction of cytotoxicity in SUDHL10 cells, CellTiter-Glo (Assay 6); assay type: cell-based; conditions: SUDHL10, 5 hours incubation, median, read-out: Cytotox SUDHL10 [M] (median)
How it was run: (§2)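 Overnight seeding at 37 °C, 5 h treatment, CellTiter-Glo added, 15 min shake at RT, luminescence read. Medium without cells as control.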

AMO-1 = experiment: Anti-proliferative effect in AMO-1 cells, CellTiter-Glo (Assay 7); assay type: cell-based; conditions: AMO-1, 72 hours incubation, CellTiter-Glo, several values per example, read-out: Antiproli AMO-1
How it was run: (§3)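 Proliferation is measured as luminescence from CellTiter-Glo after cells grow with compound for 72 h in a humidified 37 °C incubator. A reference plate read at time zero supplies the day 0 baseline, and DMSO wells serve as control for IC50 calculation.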

MV-4-11 = experiment: Anti-proliferative effect in MV-4-11 cells, CellTiter-Glo (Assay 7); assay type: cell-based; conditions: MV-4-11, 72 hours incubation, CellTiter-Glo, several values per example, read-out: Antiproli MV-4-11
How it was run: as §3

HMC-1-8 = experiment: Anti-proliferative effect in HMC-1-8 cells, CellTiter-Glo (Assay 7); assay type: cell-based; conditions: HMC-1-8, 72 hours incubation, read-out: Antiproli HMC-1-8
Procedure: Assessment of the Anti-Proliferative Effect of Compounds in Different Cell Lines
The impact of compounds on the proliferation of different cell lines was assessed using the CellTiter-Glo® Luminescent Cell Viability reagent from Promega (G7573).
In parallel, cells were plated in a reference (day 0) plate for time zero determination. Cells were incubated in a humidified incubator at 37° C. overnight.
Rim wells were excluded. The cells were incubated for 72 hours in a humidified incubator at 37° C. The day 0 plate was measured by adding 30 μL/well of CTG solution (CellTiter-Glo® Luminescent Cell Viability reagent, Promega G7573) to time zero wells in the reference plate followed by a 10 minutes incubation and luminescence reading at 0.1 ms. using the PHERAstar FS microplate reader (BMG Labtech).
After 72 hours incubation, the treated plates were measured in the same way as the day 0 plate mentioned above. The Bella DRC Master Sheet was used to calculate IC50s, with CI=day 0 values and C0=DMSO control values.

BCL-2 = BCL-2 (Homo sapiens, UniProt P10415); experiment: Protein-protein interaction assay BCL-2/Bad BH3 peptide, TR-FRET (BCL-2 assay, Assay 3); assay type: binding; conditions: His-BCL-2 / Bad BH3 peptide, median
SUDHL5 [7] = experiment: Anti-proliferative effect in SUDHL5 cells, CellTiter-Glo (Assay 7); assay type: cell-based; conditions: SUDHL5, 72 hours incubation, CellTiter-Glo, median, read-out: Antiproli SUDHL5 [M] (median)
How it was run: as §3

BCL-XL = BCL-XL (Homo sapiens, UniProt Q07817); experiment: Protein-protein interaction assay BCL-XL/Bad BH3 peptide, TR-FRET (BCL-XL assay, Assay 2); assay type: binding; conditions: His-BCL-XL / Bad BH3 peptide, median
Procedure: Protein-Protein Interaction Assay: BCL-XL/Bad BH3 Peptide (BCL-XL Assay)
The dose-dependent inhibition by the compounds described in this invention of the interaction between BCL-XL and the BH3 domain of Bad (both human) was determined using a steady state binding competition assay with time-resolved fluorescence energy transfer (TR-FRET) readout. For that purpose BCL-XL (amino acids 1-212, C-terminal fused to a hexahistidine (6×His) tag (SEQ ID 3) and a synthetic Bad BH3-derived peptide of sequence Biotin-PEG2-PEG2-[sequence]-Nle-[sequence]-amide (SEQ ID 4) served as protein receptor and tracer ligand respectively. The recombinant BCL-XL protein (expressed in E. coli) was purchased from BPS Bioscience (San Diego, Calif., USA). The Bad BH3-derived peptide can be obtained from e.g. Biosyntan (Berlin, Germany).
For that, 100-fold concentrated DMSO solutions were prepared by serial dilutions (1:3.4) of a 2 mM stock solution in a clear, 384-well microtiter plate (Greiner Bio-One, Frickenhausen, Germany). From there, 50 nl were transferred in a dark test plate (Greiner Bio-One, Frickenhausen, Germany). The assay was initiated by addition of 2 μl of a 2,5-fold concentrated His-BCL-XL solution (usually for a 1 nM end concentration in 5 μl reaction volume) in aqueous assay buffer [50 mM Tris/HCl pH 7, 100 mM sodium chloride (NaCl), 50 mM potassium fluoride (KF), 0.005% Tween-20, 2 mM DTT, 0.1% bovine gamma globulin (BGG)] to the compounds in the assay plate. This was followed by a 10-minute incubation step at 22° C. for pre-equilibration of the putative complex between His-BCL-XL and the compounds.
The mixture was incubated in the dark for one hour at 22° C. and then overnight at 4° C. The formation of BCL-XL/Bad complexes was determined by measuring the resonance energy transfer of the anti-His- Eu-cryptate antibody to the streptavidin-XL665 present in the reaction. For that purpose, the fluorescence emission at 620 nm and 665 nm after excitation at 330-350 nm was measured in a TR-FRET measuring instrument, for instance a Rubystar or a Pherastar (both from BMG Lab Technologies, Offenburg, Germany) or a Viewlux (Perkin-Elmer). The ratio of the emission at 665 nm and at 622 nm was used as indicator of the amount of BCL-XL/Bad complexes present.
The resulting data (ratio) were normalized, taking 0% inhibition as the mean value of control measurements (usually 32 data points) where all reagents were included. In this case 50 nl DMSO were used instead of compounds. […] IC50 values were determined by regression analysis based on a 4 parameter equation (minimum, maximum, IC50, Hill; Y=Max+(Min−Max)/(1+(X/IC50)^Hill) using the Screener Software (Genedata).

A2780 = experiment: Anti-proliferative effect in A2780 cells, CellTiter-Glo (Assay 7); assay type: cell-based; conditions: Homo sapiens, A2780, 72 h, A2780, 72 hours incubation, CellTiter-Glo; several values per example; read-out: Antiproli A2780
How it was run: as §3

SUDHL5 [8] = experiment: Induction of cytotoxicity in SUDHL5 cells, CellTiter-Glo (Assay 6); assay type: cell-based; conditions: SUDHL5, 5 hours incubation, median, read-out: Cytotox SUDHL5 [M] (median)
How it was run: as §2

BCL-XL, sequence (Q07817 1-212): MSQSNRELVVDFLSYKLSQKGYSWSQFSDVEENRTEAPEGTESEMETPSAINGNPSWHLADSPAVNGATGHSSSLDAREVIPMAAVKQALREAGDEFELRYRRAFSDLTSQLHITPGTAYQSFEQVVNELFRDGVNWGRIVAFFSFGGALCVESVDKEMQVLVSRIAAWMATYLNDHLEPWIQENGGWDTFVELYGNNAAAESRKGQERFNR
BCL-2, sequence (P10415 1-211): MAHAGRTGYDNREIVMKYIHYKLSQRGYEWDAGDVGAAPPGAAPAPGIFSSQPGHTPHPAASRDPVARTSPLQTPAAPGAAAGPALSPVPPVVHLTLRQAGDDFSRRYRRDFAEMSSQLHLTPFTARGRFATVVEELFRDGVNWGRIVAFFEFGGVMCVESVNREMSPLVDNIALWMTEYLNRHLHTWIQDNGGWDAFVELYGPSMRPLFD
MCL-1, sequence (Q07820 173-321 K194A/K197A/R201A, looked up): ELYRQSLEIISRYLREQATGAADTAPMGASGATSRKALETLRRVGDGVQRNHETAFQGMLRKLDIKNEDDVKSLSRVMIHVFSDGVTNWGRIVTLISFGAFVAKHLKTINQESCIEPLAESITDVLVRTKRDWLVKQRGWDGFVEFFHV

Compound: CCOC(=O)c1[nH]c2c(-c3c(CO)nn(C)c3C)c(Cl)ccc2c1CCCOc1cccc2cc(F)ccc12
- ring closure, crude yield [1]: 90%
- ring closure, isolated yield ([2]; the molecule shown is the open-chain precursor, crosslinker bond, 1,2-bis(bromomethyl)benzene/Cs2CO3, MeCN/THF 2:1, 24.3 mM, 80.0 °C): 74%

Compound: CCOC(=O)c1[nH]c2c(-c3c(CO)nn(C)c3C)cccc2c1CCCOc1cccc2ccccc12
- ring closure, yield after HPLC [3]: 20% and 30%

Compound: CCOC(=O)c1c(CCCOc2cccc3cc(F)ccc23)c2ccc(Cl)c3c2n1Cc1ccccc1COCc1c-3c(CC)nn1CCN1CCOCC1
- ring closure, yield of all isomers (from CCOC(=O)c1c(CCCOc2cccc3cc(F)ccc23)c2ccc(Cl)c(-c3c(CC)nn(CCN4CCOCC4)c3CO)c2n1Cc1ccccc1CBr, ether bond, NaH / di-tert-butyl imidodicarbonate, DMF, 56.1 mM, 50.0 °C, […]): 10%
- ring closure, isolated yield ([2]; from CCOC(=O)c1c(CCCOc2cccc3cc(F)ccc23)c2ccc(Cl)c(-c3c(CC)nn(CCN4CCOCC4)c3CO)c2n1Cc1ccccc1CBr, ether bond, NaH/di-tert-butyl imidodicarbonate, DMF, 56.1 mM, […]): 10%

Compound: CCOC(=O)c1c(CCCOc2cccc3ccccc23)c2ccc(Cl)c3c2n1Cc1ccccc1COCc1nn(C)c(C)c1-3
- ring closure, yield of all isomers (from CCOC(=O)c1c(CCCOc2cccc3ccccc23)c2ccc(Cl)c(-c3c(CO)nn(C)c3C)c2n1Cc1ccccc1CBr, ether bond, sodium hydride / di-tert-butyl imidodicarbonate, THF, 29.9 mM, […], 72.0 h): 76%
- ring closure, isolated yield ([2]; from CCOC(=O)c1c(CCCOc2cccc3ccccc23)c2ccc(Cl)c(-c3c(CO)nn(C)c3C)c2n1Cc1ccccc1CBr, ether bond, NaH/di-tert-butyl imidodicarbonate, THF, 29.9 mM, […]): 76%

Compound: CCOC(=O)c1c(CCCOc2cccc3ccccc23)c2cccc3c2n1Cc1ccccc1CNCc1nn(C)c(C)c1-3
- ring closure, yield of all isomers (from CCOC(=O)c1c(CCCOc2cccc3ccccc23)c2cccc(-c3c(CBr)nn(C)c3C)c2n1Cc1ccccc1CN, amine bond, cesium carbonate, acetonitrile, 30.6 mM, 50.0 °C, 15.0 h): 47.3%

- EC50 (SUDHL5 [4]; Homo sapiens, SU-DHL-5, 3 h): 2.5e-06 M
- EC50 (SUDHL10 [5]; Homo sapiens, SU-DHL10, 3 h): 1e-05 M
- IC50 (MCL-1): 1.5e-09 M
- IC50 (MV-4-11; Homo sapiens, MV4-11, 72 h): 15.1 µM
- IC50 (BCL-2): > 20 µM
- IC50 (SUDHL5 [7]; Homo sapiens, SU-DHL-5, 72 h): 2.5e-06 M
- IC50 (BCL-XL): > 20 µM
- IC50 (A2780): > 33 µM
Compound: Cc1c2c(nn1C)COCc1nccnc1Cn1c(C(=O)O)c(CCCOc3cccc4cc(F)ccc34)c3ccc(Cl)c-2c31 (racemic) [Example 93, (rac)-3-Chloro-17-{3-[(6-fluoronaphthalen-1-yl)oxy]propyl}-4,5-dimethyl-5,7,9,14-tetrahydropyrazino[2′,3′:3,4]pyrazolo[4′,3′:9,10][1,6]oxazacycloundecino[8,7,6-hi]indole-16-carboxylic Acid]
- IC50 (SUDHL10 [6]; Homo sapiens, SU-DHL10, 5 h): 6.7e-06 M
- IC50 (AMO-1; Homo sapiens, AMO1, 72 h): 7.19 µM
- IC50 (HMC-1-8; 72 h): 32 µM
- IC50 (SUDHL5 [8]; Homo sapiens, SU-DHL-5, 5 h): 2.8e-06 M

- EC50 (SUDHL5 [4]): 1.8e-06 M
- EC50 (SUDHL10 [5]): 7.3e-06 M
- IC50 (MV-4-11): 5.27 µM
- IC50 (BCL-2): > 20 µM
- IC50 (BCL-XL): > 20 µM
Compound: Cc1c2c(nn1C)COCc1nccnc1Cn1c(C(=O)O)c(CCCOc3cccc4ccccc34)c3ccc(Cl)c-2c31 (single isomer, unassigned; enantiomer 1) [Example 46, 3-Chloro-4,5-dimethyl-17-{3-[(naphthalen-1-yl)oxy]propyl}-5,7,9,14-tetrahydropyrazino-[2′,3′:3,4]pyrazolo[4′,3′:9,10][1,6]oxazacycloundecino[8,7,6-hi]indole-16-carboxylic Acid (Enantiomer 1)]
- IC50 (SUDHL10 [6]): 7e-06 M
- IC50 (AMO-1; Homo sapiens, AMO1, 72 h): 6.15 µM
- IC50 (HMC-1-8; 72 h): 11.9 µM

- EC50 (SUDHL5 [4]): 4.7e-06 M
- EC50 (SUDHL10 [5]): 1.6e-05 M
- IC50 (MV-4-11): 11.7 µM
- IC50 (SUDHL5 [7]): 4.6e-06 M
Compound: Cc1c2c(nn1C)COCc1nccnc1Cn1c(C(=O)O)c(CCCOc3cccc4ccccc34)c3ccc(Cl)c-2c31 (single isomer, unassigned; enantiomer 2) [Example 47, 3-Chloro-4,5-dimethyl-17-{3-[(naphthalen-1-yl)oxy]propyl}-5,7,9,14-tetrahydropyrazino-[2′,3′:3,4]pyrazolo[4′,3′:9,10][1,6]oxazacycloundecino[8,7,6-hi]indole-16-carboxylic Acid (Enantiomer 2)]
- IC50 (SUDHL10 [6]): 1.9e-05 M
- IC50 (AMO-1): 11.5 µM
- IC50 (HMC-1-8): 16.1 µM
- IC50 (SUDHL5 [8]): 4.8e-06 M

— US20210253598A1, “ARYL ANNULATED MACROCYCLIC INDOLE DERIVATIVES” (priority 2017, published 2021)
